# Laboratory results reported in US20180256673A1, “METHODS FOR TREATING FUNGAL INFECTIONS” (priority 2015, published 2018).
# Where two headings read alike, the source gives them in different places.
# Key:
# [1] = tested on: azole-resistant Candida albicans R357 strain; experiment: microbe, parasite or virus in culture; format: cell-based
# C. albicans NRRL Y-477 = experiment: microbe, parasite or virus in culture; format: cell-based, Candida albicans; settings: for MIC: Candida albicans
# [2] = tested on: C. glabrata ATCC 90030, ATCC 2001; experiment: microbe, parasite or virus in culture; format: cell-based, Candida glabrata; settings: for MIC fold-shift: WT to P20; for MIC: Nakaseomyces glabratus
# C. krusei ATCC 6258 = experiment: microbe, parasite or virus in culture; format: cell-based, Candida krusei; settings: for MIC: Pichia kudriavzevii
# [3] = tested on: C. albicans vaginal isolates; experiment: Susceptibility testing of VVC clinical isolates at pH 7 and 4 (CLSI M27-A3); format: cell-based, Candida albicans; settings: Candida albicans; for MIC: read-out: MIC; for MIC90: 60 isolates, read-out: MIC90
# [4] = tested on: C. tropicalis vaginal isolates; experiment: as above; format: cell-based; settings: Candida tropicalis, 13 isolates, read-out: MIC90
# Candida albicans = experiment: Broth microdilution of invasive fungal isolates (CLSI M27-A3/M38-A2); format: cell-based; settings: 251 isolates
structure (smiles),measurement,setting,value
"CC[C@H](C)C[C@H](C)CCCCCCCCC(=O)N[C@H]1C[C@@H](O)[C@@H](NCCN)NC(=O)[C@@H]2[C@@H](O)CCN2C(=O)[C@H]([C@H](O)CCN)NC(=O)[C@H]([C@H](O)[C@@H](O)c2ccc(O)cc2)NC(=O)[C@@H]2C[C@@H](O)CN2C(=O)[C@H]([C@@H](C)O)NC1=O [CAS, caspofungin]",Susceptibility (CLSI),[1]; C. albicans R357,S
same,MIC,[1]; Candida albicans,0.25 µg/mL
same,MIC,"C. albicans NRRL Y-477; NRRLY477, 48 h, NRRL Y-477 P20-1, selecting drug ANID, Fks1 HS1 S645Y, 48 h read",2 µg/mL
same,MIC,"C. albicans NRRL Y-477; NRRLY477, 48 h, NRRL Y-477 P20-1, selecting drug CMP1, 48 h read",0.5 µg/mL
same,MIC,"C. albicans NRRL Y-477; NRRLY477, NRRL Y-477 P20-1, selecting drug CAS",0.25 µg/mL
same,MIC,"C. albicans NRRL Y-477; NRRLY477, read-out: MIC P20, NRRL Y-477, total population after 20 passages with the selecting drug, MIC of selecting drug",0.25 µg/mL
same,MIC fold-shift,"C. albicans NRRL Y-477; NRRL Y-477, WT to P20",1
same,MIC fold-shift,[2]; ATCC 2001,8
same,MIC fold-shift,[2]; ATCC 90030,128
same,MIC,"[2]; 48 h, ATCC 90030 P20-1, selecting drug ANID, Fks2 HS1 D666I, 48 h read",2 µg/mL
same,MIC,"[2]; 48 h, ATCC 90030 P20-1, selecting drug CAS, Fks2 HS1 F659I D666Y, 48 h read",32 µg/mL
same,MIC,"[2]; ATCC 2001 P20-2, selecting drug ANID, Fks1 HS1 D632Y",2 µg/mL
same,MIC,"[2]; ATCC 2001 P20-2, selecting drug CAS",2 µg/mL
same,MIC,"[2]; ATCC 2001 P20-2, selecting drug CMP1",1 µg/mL
same,MIC,"[2]; ATCC 90030 P20-2, selecting drug CMP1",1 µg/mL
same,MIC,"[2]; read-out: MIC P20, ATCC 2001, total population after 20 passages with the selecting drug, MIC of selecting drug",2 µg/mL
same,MIC,"[2]; read-out: MIC P20, ATCC 90030, total population after 20 passages with the selecting drug, MIC of selecting drug",32 µg/mL
same,MIC fold-shift,"C. krusei ATCC 6258; ATCC 6258, WT to P20",2
same,MIC,C. krusei ATCC 6258; ATCC6258,0.5 µg/mL
same,MIC,"C. krusei ATCC 6258; ATCC6258, read-out: MIC P20",1 µg/mL
same,MIC,"[3]; 48 h, pH 4, fluconazole-resistant isolate 1, pH 4, 48 h",0.25 µg/mL
same,MIC,"[3]; 48 h, pH 4, fluconazole-resistant isolate 2, pH 4, 48 h",1 µg/mL
same,MIC,"[3]; 48 h, pH 4, fluconazole-resistant isolate 3, pH 4, 48 h",0.5 µg/mL
same,MIC,"[3]; 48 h, pH 4, fluconazole-resistant isolate 4, pH 4, 48 h",1 µg/mL
same,MIC,"[3]; 48 h, pH 4, fluconazole-resistant isolate 5, pH 4, 48 h",4 µg/mL
same,MIC,"[3]; 48 h, pH 4, fluconazole-resistant isolate 6, pH 4, 48 h",1 µg/mL
same,MIC,"[3]; 48 h, pH 4, fluconazole-resistant isolate 7, pH 4, 48 h",1 µg/mL
same,MIC,"[3]; 48 h, pH 4, fluconazole-resistant isolate 8, pH 4, 48 h",0.5 µg/mL
same,MIC,"[3]; 48 h, pH 4, fluconazole-resistant isolate 9, pH 4, 48 h",1 µg/mL
same,MIC,"[3]; 48 h, pH 4, fluconazole-resistant isolate 10, pH 4, 48 h",1 µg/mL
same,MIC,"[3]; 48 h, pH 7, fluconazole-resistant isolate 1, pH 7, 48 h",0.5 µg/mL
same,MIC,"[3]; 48 h, pH 7, fluconazole-resistant isolate 2, pH 7, 48 h",0.5 µg/mL
same,MIC,"[3]; 48 h, pH 7, fluconazole-resistant isolate 3, pH 7, 48 h",0.5 µg/mL
same,MIC,"[3]; 48 h, pH 7, fluconazole-resistant isolate 4, pH 7, 48 h",0.5 µg/mL
same,MIC,"[3]; 48 h, pH 7, fluconazole-resistant isolate 5, pH 7, 48 h",2 µg/mL
same,MIC,"[3]; 48 h, pH 7, fluconazole-resistant isolate 6, pH 7, 48 h",1 µg/mL
same,MIC,"[3]; 48 h, pH 7, fluconazole-resistant isolate 7, pH 7, 48 h",0.5 µg/mL
same,MIC,"[3]; 48 h, pH 7, fluconazole-resistant isolate 8, pH 7, 48 h",0.5 µg/mL
same,MIC,"[3]; 48 h, pH 7, fluconazole-resistant isolate 9, pH 7, 48 h",2 µg/mL
same,MIC,"[3]; 48 h, pH 7, fluconazole-resistant isolate 10, pH 7, 48 h",0.5 µg/mL
same,MIC90,"[3]; pH 4, 24 h",0.5 µg/mL
same,MIC90,"[3]; pH 4, 48 h",1 µg/mL
same,MIC90,"[3]; pH 7, 24 h",0.5 µg/mL
same,MIC90,"[3]; pH 7, 48 h",1 µg/mL
same,MIC90,"[4]; pH 4, 24 h",1 µg/mL
same,MIC90,"[4]; pH 4, 48 h",2 µg/mL
same,MIC90,"[4]; pH 7, 24 h",1 µg/mL
same,MIC90,"[4]; pH 7, 48 h",2 µg/mL
same,Cumulative % of isolates inhibited at MIC 0.015 μg/mL,Candida albicans,(31.9) %
same,Cumulative % of isolates inhibited at MIC 0.03 μg/mL,Candida albicans,(85.7) %
same,Cumulative % of isolates inhibited at MIC 0.06 μg/mL,Candida albicans,(99.2) %
same,Cumulative % of isolates inhibited at MIC 0.12 μg/mL,Candida albicans,(100.0) %
same,Cumulative % of isolates inhibited at MIC ≤0.008 μg/mL,Candida albicans,1.6%
same,Number of isolates inhibited at MIC 0.015 μg/mL,Candida albicans,76
same,Number of isolates inhibited at MIC 0.03 μg/mL,Candida albicans,135
same,Number of isolates inhibited at MIC 0.06 μg/mL,Candida albicans,34
